{"source": "patent US20250312320A1", "about": "“METHOD AND TREATMENT FOR OSTEOARTHRITIS AND DISEASES OF CHONDROCYTE HYPERTROPHY” (The Royal Veterinary College, priority 2022, published 2025)", "key": {"[1]": {"system": "primary equine chondrocytes", "assay": "Primary equine chondrocyte micromass treated with BI1347: gene expression", "assay_type": "cell-based", "details": "1 μM", "experimental": "(§1) Articular cartilage was isolated, placed into a petri dish containing phosphate buffer saline (PBS) supplemented with 2% Ab/Am (PBS-Ab/Am) and transferred to a laminar flow hood for processing. Cartilage shavings were minced using a sterile scalpel to approximately 1 mm^3 and washed in fresh PBS-Ab/Am by centrifugation at 500×g for 10 minutes. Supernatant was removed and the cartilage pellet resuspended in 5 ml TrypLE™ (Gibco) before incubation at 37° C. for 10 minutes with gentle agitation. Dissociated cartilage fragments were pelleted and washed to remove excess TrypLE and resuspended in DMEM-complete media (DMEM/F12 (Gibco), 1% Ab/Am, 10% FBS) supplemented with 2 mg/ml Collagenase Type II and incubated overnight at 37° C. with gentle agitation. The cartilage digest was pelleted, washed and subsequently resuspended in DMEM-complete. Released cells were counted using a haematocytometer and seeded at 10,000 cells per cm^2. The cultures were incubated at 37° C., 5% CO2 in a humidified incubator for 2 days before refreshing DMEM-complete every 2 days until confluency. For differentiation experiments, primary chondrocytes were differentiated in DMEM/F12 containing 2% FBS, 1% Ab/Am, 1× Insulin-Transferrin-Selenium premix, 10 ng/ml TGFβ3 (primary chondrocyte differentiation media).\nFor primary equine chondrocytes, chondrocytes were seeded in 10 μl micromasses as above and differentiated for 14 days in presence of primary chondrocyte differentiation media supplemented with 1 μM BI1347 before processing for gene expression analysis as described above."}, "[2]": {"system": "THP-1 derived macrophages", "assay": "LPS stimulated THP-1 derived macrophages: gene expression", "assay_type": "cell-based, human", "details": "1 μM, 1 h pretreatment + 24 h LPS", "experimental": "THP-1 monocytes were differentiated into macrophages via treatment with 50 ng/ml phorbol 12-myristate 13-acetate (PMA) in THP-1 growth media (RPMI-1640, 100 μg/ml Primocin, 10% FBS, 0.05 mM β-mercaptoethanol) for 48 hours. Macrophages were then washed twice to remove PMA containing media before a 1-hour pretreatment with 1 μM BI1347 or 100 nM MSC2530818. Inflammatory stimulation was then initiated via the addition of lug/ml lipopolysaccharide (LPS) for 24 hours in the presence of 1 μM BI1347 or 100 nM MSC2530818. Gene expression analysis was subsequently carried out as previously outlined. For MSC2530818 treated/LPS stimulated cells, media supernatant was used for IL-1β cytokine analysis quantification via ELISA (PeproTech, ABTS Human IL-1β development ELISA) as per manufacturer instructions."}, "[3]": {"system": "C57/BL-6 bone marrow derived osteoclasts", "assay": "Primary osteoclast number and resorption on dentin discs", "assay_type": "cell-based, mouse", "details": "1 μM, N=8", "experimental": "Osteoclasts were isolated from the bone marrow of the long bones of 8-week old C57/BL-6 mice and cultured for 24 hours in osteoclast basal media (MEM supplemented with 10% FBS, 2 mM L-glutamine, 1% Ab/Am). After 24 hours, 1×10^6 osteoclasts were seeded onto dentin discs in osteoclast differentiation media (basal media supplemented with 100 nM PGE2, 200 ng/ml MCSF, 3 ng/ml RANKL pH 7.3) for 24 hours before addition of 1 μM BI1347 or DMSO for 3 days (N=8). On day 5 of culture, osteoclast resorption was initiated by addition of 10 mM hydrochloric acid to acidify differentiation media to pH 7.0 for 2 days. On day 7, discs were fixed in 2.5% glutaraldehyde, tartrate resistant acid phosphatase (TRAP) stained and imaged using Axiovert Microscope at ×10 magnification to observe osteoclast resorption.\nPre-osteoclast and osteoclast numbers were counted using the automated counting method developed by Davies et al. 2021 (currently under review) using Ilastik software in Image J (Fiji, US). Resorption area on each disc was manually counted and analysed using Image J software."}, "ATDC5 micromass": {"system": "ATDC5 micromass", "assay": "IL-1β induced extracellular matrix degradation of ATDC5 micromass: gene expression", "assay_type": "cell-based, mouse", "experimental": "To mimic this route of cartilage degradation in vitro, 10 μl ATDC5 micromasses were seeded and differentiated in the presence of 1 μM BI1347 or DMSO for 11 days to allow for sufficient ECM deposition. Cells were then serum starved for 24 hours in differentiation media containing 1% FBS before treatment with 1 μM BI1347 or DMSO for 1 hour and subsequent induction of ECM degradation by co-treatment with 10 ng/ml IL-1β (PeproTech) for 48 hours. Compound only conditions were used as a negative control and additional micromasses were differentiated in the presence of 1 μM BI1347 for the entire culture period to observe whether pre-treatment of ATDC5 with BI1347 alters cellular responses to IL-1B. On day 14 micromasses were stained with alcian blue and leached as previous and RNA extracted for gene expression analysis as above."}, "[4]": {"system": "primary equine articular chondrocytes", "assay": "Primary equine articular chondrocytes in chondrogenesis and IL1β OA disease model: gene expression", "assay_type": "cell-based", "details": "100 nM, N=2", "experimental": "as §1\n(§2) Additional experiments were carried out on primary chondrocytes (equine, canine and human) and ihMSC (TERT immortalised human mesenchymal stromal cell line) to investigate whether CDK8i protects from IL-1β induced degradation when added throughout the entirety of differentiation/IL-1β treatment. Briefly, ihMSCs were seeded at a density of 5×10^4 cells per 10 μl micromass and differentiated in ihMSC chondrogenic media (1% FBS, 1% Ab/Am, 1× Insulin-Transferrin-Selenium premix, 10 μM Y-27632, 100 nM dexamethasone, 50 μg/ml ascorbic acid, 20 ng/ml TGF-β3 (Peprotech)). Primary chondrocytes were seeded at 2.7×10^5 cells per 10 μl micromass and differentiated in primary chondrocyte differentiation media. All micromasses were differentiated for 12 days in the presence of 100 nM […] or DMSO. Some micromasses were processed for gene expression analysis/alcian blue staining on day 12, whilst others were treated with IL-β media (1% FBS, 1% Ab/Am, 10 ng/ml IL-1B) and CDK8i for 48-hours before processing for alcian blue staining/gene expression analysis on day 14 as previously described."}, "[5]": {"system": "primary human articular chondrocytes", "assay": "Primary human articular chondrocytes in chondrogenesis and IL1β OA disease model: gene expression", "assay_type": "cell-based", "details": "100 nM; for MATN3 gene expression, increase vs DMSO / SMOC2 gene expression, increase vs DMSO: N=1", "experimental": "as §1, §2"}, "[6]": {"details": "1 μM days 12-14, with 10 ng/ml IL-1β"}, "[7]": {"details": "1 μM throughout differentiation, 10 ng/ml IL-1β days 12-14"}}, "note": "Entries after “also recorded” stand apart in the source; their conditions may differ."}
{"smiles": "CN(C)C(=O)Cn1cc(-c2ccc(-c3cncc4ccccc34)cc2)cn1", "note": "[BI1347]", "values": [{"measurement": "ACAN expression, increase vs DMSO", "setting": "[1]; day 14", "result": 14, "unit": "fold"}, {"measurement": "RUNX2 expression vs DMSO", "setting": "[1]; day 14", "result": "identical; also recorded: no increase"}, {"measurement": "SOX9 expression, increase vs DMSO", "setting": "[1]; day 14 (N.S)", "result": 1.5, "unit": "fold"}, {"measurement": "COL2A1 expression, increase vs DMSO", "setting": "[1]; day 14, N=1", "result": 9, "unit": "fold"}, {"measurement": "NF-κB gene expression, decrease vs DMSO", "setting": "[2]", "result": 6, "unit": "fold"}, {"measurement": "TLR4 gene expression, decrease vs DMSO", "setting": "[2]", "result": 9, "unit": "fold"}, {"measurement": "mature osteoclast number vs DMSO", "setting": "[3]", "result": "no effect; also recorded: no change"}, {"measurement": "osteoclast resorptive activity, reduction vs DMSO", "setting": "[3]", "result": 2.3, "unit": "fold"}, {"measurement": "pre-osteoclast number vs DMSO", "setting": "[3]", "result": "no effect; also recorded: no change"}, {"measurement": "ACAN expression, increase vs DMSO", "setting": "ATDC5 micromass; [6]", "result": 3, "unit": "fold"}, {"measurement": "COL2A1 expression, increase vs DMSO", "setting": "ATDC5 micromass; [6]", "result": 1.5, "unit": "fold"}, {"measurement": "COL2A1 expression, increase vs DMSO", "setting": "ATDC5 micromass; 1 μM days 12-14, without IL-1β", "result": 1.7, "unit": "fold"}, {"measurement": "ACAN expression, increase vs DMSO", "setting": "ATDC5 micromass; 1 μM days 12-14, without IL-1β (N.S)", "result": 1.2, "unit": "fold"}, {"measurement": "ACAN expression, increase vs DMSO", "setting": "ATDC5 micromass; [7]", "result": 20, "unit": "fold"}, {"measurement": "COL2A1 expression, increase vs DMSO", "setting": "ATDC5 micromass; [7]", "result": 3, "unit": "fold"}]}
{"smiles": "Cc1n[nH]c2ncc(C(=O)N3CCC[C@H]3c3ccc(Cl)cc3)cc12", "note": "[MSC2530818]", "values": [{"measurement": "ADAMTS5 gene expression, reduction vs DMSO", "setting": "[4]; OA disease model (+IL1β)", "result": 2.7, "unit": "fold"}, {"measurement": "CNMD gene expression, increase vs DMSO", "setting": "[4]; OA disease model (+IL1β)", "result": 70, "unit": "fold"}, {"measurement": "COL2A1 gene expression, increase vs DMSO", "setting": "[4]; OA disease model (+IL1β)", "result": 11, "unit": "fold"}, {"measurement": "SMOC2 gene expression, increase vs DMSO", "setting": "[4]; OA disease model (+IL1β)", "result": 3, "unit": "fold"}, {"measurement": "ACAN gene expression, increase vs DMSO", "setting": "[4]; OA disease model (+IL1β), ns", "result": 1.8, "unit": "fold"}, {"measurement": "MATN3 gene expression vs DMSO", "setting": "[4]; OA disease model (+IL1β), ns", "result": 2, "unit": "fold"}, {"measurement": "TIMP4 gene expression, increase vs DMSO", "setting": "[4]; OA disease model (+IL1β), ns", "result": 1.14, "unit": "fold"}, {"measurement": "CNMD gene expression, increase vs DMSO", "setting": "[4]; chondrogenic (−IL1β)", "result": 41, "unit": "fold"}, {"measurement": "SMOC2 gene expression, increase vs DMSO", "setting": "[4]; chondrogenic (−IL1β)", "result": 2.3, "unit": "fold"}, {"measurement": "TIMP4 gene expression vs DMSO", "setting": "[4]; chondrogenic (−IL1β)", "result": "no change"}, {"measurement": "ACAN gene expression, increase vs DMSO", "setting": "[4]; chondrogenic (−IL1β), ns", "result": 2, "unit": "fold"}, {"measurement": "COL2A1 gene expression, decrease vs DMSO", "setting": "[4]; chondrogenic (−IL1β), ns", "result": 1.25, "unit": "fold"}, {"measurement": "MATN3 gene expression vs DMSO", "setting": "[4]; chondrogenic (−IL1β), ns", "result": 2, "unit": "fold"}, {"measurement": "ADAMTS5 gene expression, reduction vs DMSO", "setting": "[5]; OA disease model (+IL1β), p=0.053", "result": 2.5, "unit": "fold"}, {"measurement": "MATN3 gene expression, increase vs DMSO", "setting": "[5]; chondrogenic (−IL1β)", "result": 100, "unit": "fold"}, {"measurement": "SMOC2 gene expression, increase vs DMSO", "setting": "[5]; chondrogenic (−IL1β)", "result": 6, "unit": "fold"}, {"measurement": "MATN3 gene expression, increase vs DMSO", "setting": "[5]; disease model (+IL1β)", "result": 12, "unit": "fold"}, {"measurement": "SMOC2 gene expression, increase vs DMSO", "setting": "[5]; disease model (+IL1β)", "result": 7, "unit": "fold"}]}
